Measurements from patent US20040091479A1, “T-cell epitope of the papillomavirus l1 and e7 protein and use thereof in diagnostics and therapy” (priority 2000, published 2004).
Where a SMILES comes first, the peptide text is derived from it.

Tests used:
[1] = test system: HPV18 CVLP-stimulated human T cells; assay: Restimulating HPV18 CVLP-stimulated T cells with BLCL presenting Q38, Q39, Q46 or Q47 (example 13); assay type: cell-based; conditions: conclusion from FIG. 12 top right
Experimental: In analogy with example 6, human T cells (4×10^5) derived from a non-HLA-typed blood donor were stimulated with HPV18L1ΔCDIE71-53DI CVLPs and HPV18L1ΔCDIE71-60DI CVLPs and harvested.
The T cells were then restimulated, at 37° C. and in 100 μl of medium, with in each case 1 μg of peptide Q38, Q39, Q46 or Q47/ml and 10^5 antigen-presenting cells (donor-identical BLCL) in the presence of 10 IU of IL2/ml. Cells which were only incubated with buffer served as the negative control while cells which were incubated with the HPV18 L1 peptide pool or the E7 peptide pool served as positive controls.
(§1) 1 μl of monensin was added after an hour. The cells were then incubated at 37° C. for a further 5 hours. After that, the cells were fixed and permeabilized and stained with α-human CD8/APC, with α-human CD4/PerCP and with α-human IFNγ/FITC. The labeling of the cells was examined in a FACScan Calibur and the results of the measurements were analyzed using Cellquest software.

[2] = test system: CVLP-stimulated CD8-positive T cells; assay: Restimulating HPV16 CVLP-stimulated T cells with BLCL presenting HPV16 peptide pools (example 14); assay type: cell-based, human; conditions: peptide common to two reactive HPV16 pools; CD8/IFNγ
Experimental: (§2) In analogy with example 6, human T cells derived from a non-HLA-typed blood donor were stimulated with HPV16L1ΔC*E71-55 CVLPs and harvested.
The T cells were then restimulated, at 37° C. and in 100 μl of medium, with the peptide pools from example 7 and 10^5 antigen-presenting cells (donor-identical BLCL) in the presence of 10 IU of IL2/ml. Use was made, in this connection, of quantities of the peptide pools which were such that 1 μg/ml was added in the case of each individual peptide. Cells which were only incubated with buffer served as the negative control, while cells which were incubated with the HPV16 L1 or E7 peptide pool served as positive controls.
as §1

[3] = test system: CVLP-stimulated T cells (CD4-positive); assay: Restimulating HPV16 CVLP-stimulated T cells with BLCL presenting HPV16 peptide pools (example 7); assay type: cell-based, human; conditions: peptide common to two reactive HPV16 pools; CD4/IFNγ
Excerpt: as §2
The 20mer peptides P1 to 51 were assembled into peptide pools A to H and 1 to 7, respectively, in accordance with the following matrix
The T cells were then restimulated as described in example 6, fixed, permeabilized and stained. The analysis also took place as described in example 6.

[4] = test system: peptide-stimulated murine CD8 T cells; assay: Restimulating HPV18 peptide-stimulated murine T cells with peptide-presenting RMA cells (example 16); assay type: cell-based; conditions: for reactive CD8-positive T cells (IFNγ, FACScan): RMA cells as antigen-presenting cells, FIG. 15; for T cell epitope assignment: conclusion from FIG. 15
Experimental: In analogy with example 5, murine T cells derived from CVLP-inoculated mice were stimulated with L1 or E7 peptide pools in the added presence of antigen-presenting cells. The cells were then restimulated with the peptides given on the X axis in FIG. 15 (Q3 and Q4 in the upper part of FIG. 15 and L1474E71-8, E72-11 and E71-8 in the lower part of FIG. 15) and also antigen-presenting cells (RMA). Cells which were only incubated with buffer served as the negative control.
The experiment was also analyzed in analogy with example 5, with the reactive CD8-positive cells being determined by means of antibody staining and FACScan.

[5] = test system: peptide-stimulated murine CD8-positive T cells; assay: Restimulating HPV18 peptide-stimulated murine T cells with peptide-presenting LKK cells (IFNγ FACScan); assay type: cell-based, C3H mice; conditions: for proportion of CD8-positive T cells reactive on the basis of IFNγ expression: 1 μg peptide/ml, LKK cells, T cells of HPV18 CVLP-inoculated C3H mice, FIG. 3, 4; for T cell epitope assignment: conclusion from FIG. 3, 4
Experimental: Murine T cells (4×10^5) derived from C3H mice inoculated with HPV18 L1ΔCDIE71-53DI CVLPs and HPV18 L1ΔCDIE71-6ODI CVLPs were stimulated for 5 weeks with HPV18 L1 or E7 peptide pools at 37° C., with the weekly addition of 1 μg of each individual peptide/ml and 10^5 antigen-presenting cells (irradiated splenocytes), and harvested. The cells were then restimulated, at 37° C. and in 100 μl of medium, with 1 μg of the peptides given on the X axis in FIG. 3/ml and 10^5 antigen-presenting cells (LKK) in the presence of 10 IU of IL2/ml. Cells which were only incubated with buffer served as the negative control.
(§3) 1 μl of monensin (300 μm) was added after an hour. The cells were incubated at 37° C. for a further 5 hours. The cells were then fixed and permeabilized and stained with α-mouse CD8/PE, with α-mouse CD4/cychrome and with α-mouse interferony/FITC. The labeling of the cells was analyzed in a FACScan Calibur and the results of the measurement were analyzed using Cellquest software.

[6] = test system: peptide-stimulated CD8-positive murine T cells; assay: Restimulating HPV16 L1 peptide-stimulated murine T cells with peptide-presenting JAWS cells (IFNγ FACScan); assay type: cell-based, C57BL/6 mice; conditions: for proportion of CD8-positive T cells reactive on the basis of IFNγ expression: 1 μg peptide/ml, JAWS cells, T cells of HPV16L1ΔC*E71-55 CVLP-inoculated C57BL/6 mice, FIG. 1; for T cell epitope assignment: conclusion from FIG. 1
Experimental: Murine T cells (4×10^5) derived from HPV16L1ΔC*E71-55 CVLP-inoculated C57BL/6 mice were stimulated for 5 weeks with HPV16 L1 peptide pools at 37° C., with the weekly addition of 1 μg of each individual peptide/ml and 10^5 antigen-presenting cells (irradiated splenocytes), and harvested. The cells were subsequently restimulated, in 100 μl of medium at 37° C., with 1 μg of the peptides given on the X axis in FIG. 1/ml and 10^5 antigen-presenting cells (JAWS) in the presence of 10 IU of IL2/ml. Cells which were only incubated with buffer serve as the negative control.
as §3, with “After an hour, 1” for “1”, “μM)” for “μm)”, “added.” for “added after an hour.”, “interferon γ/FITC.” for “interferony/FITC.”, “caliber” for “Calibur”, “measurements” for “measurement”

## CC[C@H](C)[C@H](NC(=O)[C@H](C)NC(=O)[C@@H](NC(=O)[C@H](CO)NC(=O)[C@H](CCC(N)=O)NC(=O)[C@@H](NC(=O)[C@H](Cc1ccccc1)NC(=O)[C@H](CCCNC(=N)N)NC(=O)[C@H](Cc1ccc(O)cc1)NC(=O)[C@@H](NC(=O)[C@H](CC(=O)O)NC(=O)[C@@H](NC(=O)[C@H](CC(C)C)NC(=O)[C@H](CO)NC(=O)[C@@H](NC(=O)[C@@H](NC(=O)[C@@H]1CCCN1C(=O)[C@@H]1CCCN1C(=O)[C@@H]1CCCN1C(=O)[C@@H]1CCCN1)[C@@H](C)O)[C@@H](C)O)C(C)C)[C@@H](C)O)C(C)C)C(C)C)C(=O)O [Q38]
[1]
  T cell epitope assignment (cytotoxic): contain cytotoxic T cell epitopes

## YCYEQLNDSSEEEDEIDGPA [P46, HPV16 E7 23-42]
[2]
  T cell epitope assignment: contain a cytotoxic T cell epitope

## QPLGVGISGHPLLNKLDDTE [P11, HPV16 L1 111-130]
[3]
  T cell epitope assignment: contain a T helper epitope

## QLCLIGCKPPIGEHWGKGSP [P15, HPV16 L1 155-174]
[3]
  T cell epitope assignment: contain a T helper epitope

## CC[C@H](C)[C@H](NC(=O)[C@H](CCC(=O)O)NC(=O)[C@H](CC(=O)O)NC(=O)[C@H](CC(N)=O)NC(=O)[C@H](CCC(=O)O)NC(=O)[C@H](CCC(=O)O)NC(=O)[C@H](CCC(=O)O)NC(=O)[C@@H](N)CO)C(=O)N[C@@H](CC(=O)O)C(=O)NCC(=O)N[C@H](C(=O)N[C@@H](CC(N)=O)C(=O)N[C@@H](Cc1c[nH]cn1)C(=O)N[C@@H](CCC(N)=O)C(=O)N[C@@H](Cc1c[nH]cn1)C(=O)N[C@@H](CC(C)C)C(=O)N1CCC[C@H]1C(=O)N[C@@H](C)C(=O)N[C@@H](CCCNC(=N)N)C(=O)N[C@@H](CCCNC(=N)N)C(=O)O)C(C)C [Q47] (H-SEEENDEIDGVNHQHLPARR-OH; N-terminus and C-terminus assumed)
[1]
  T cell epitope assignment (cytotoxic): contain cytotoxic T cell epitopes

## VTVVDTTRSTNNSLCAAIST [P31, HPV16 L1 331-350]
[3]
  T cell epitope assignment: contain a T helper epitope

## HGPKATLQDI [E72-11, HPV18 E7 2-11]
[4]
  reactive CD8-positive T cells (IFNγ, FACScan): brought about a restimulation
  T cell epitope assignment: contain an H2b-restricted cytotoxic T cell epitope

## VGNPYFRVPAGGGNKQDIPK [Q5, HPV18 L1 45-64]
[5]
  proportion of CD8-positive T cells reactive on the basis of IFNγ expression: brought about a restimulation
  T cell epitope assignment: contain H2k-restricted cytotoxic T cell epitopes

## ASSNYFPTPSGSMVTSDAQI [P27, HPV16 L1 287-306]
[3]
  T cell epitope assignment: contain a T helper epitope

## SSADDLRAFQQLFLNTLSFV [Q51, HPV18 E7 78-97]
[5]
  proportion of CD8-positive T cells reactive on the basis of IFNγ expression: brought about a restimulation
  T cell epitope assignment: contain H2k-restricted cytotoxic T cell epitopes

## FYHAGSSRLLTVGNPYFRVP [Q4, HPV18 L1 34-53]
[4]
  reactive CD8-positive T cells (IFNγ, FACScan): brought about a restimulation
  T cell epitope assignment: contain an H2b-restricted cytotoxic T cell epitope

## LKKYTFWEVNLKEKFSADLD [P41, HPV16 L1 441-460]
[2]
  T cell epitope assignment: contain a cytotoxic T cell epitope

## GDSLFFYLRREQMFVRHLFN [P23, HPV16 L1 243-262]
[3]
  T cell epitope assignment: contain a T helper epitope

## GMHGPKATL [L1474E71-8, HPV18 L1 474 and E7 1-8]
[4]
  reactive CD8-positive T cells (IFNγ, FACScan): brought about a restimulation
  T cell epitope assignment: contain an H2b-restricted cytotoxic T cell epitope

## MHGPKATL [E71-8, HPV18 E7 1-8]
[4]
  reactive CD8-positive T cells (IFNγ, FACScan): brought about a restimulation
  T cell epitope assignment: contain an H2b-restricted cytotoxic T cell epitope

## STDEYVARTNIYYHAGTSRL [P3, HPV16 L1 23-42]
[6]
  proportion of CD8-positive T cells reactive on the basis of IFNγ expression: brought about a restimulation
  T cell epitope assignment: contain H2b-restricted cytotoxic T cell epitopes
[2]
  T cell epitope assignment: contain a cytotoxic T cell epitope

## YIKGSGSTANLASSNYFPTP [P26, HPV16 L1 276-295]
[3]
  T cell epitope assignment: contain a T helper epitope

## PDYLQMSADPYGDSMFFCLR [Q22, HPV18 L1 232-251]
[5]
  proportion of CD8-positive T cells reactive on the basis of IFNγ expression: brought about a restimulation
  T cell epitope assignment: contain H2k-restricted cytotoxic T cell epitopes

## WACVGVEVGRGQPLGVGISG [P10, HPV16 L1 100-119]
[3]
  T cell epitope assignment: contain a T helper epitope

## PLGRKFLLQAGMHGDTPTLH [P43, HPV16 L1 463-473 and E7 1-9]
[6]
  proportion of CD8-positive T cells reactive on the basis of IFNγ expression: brought about a restimulation
  T cell epitope assignment: contain H2b-restricted cytotoxic T cell epitopes
[2]
  T cell epitope assignment: contain a cytotoxic T cell epitope

## IFQLCKITLTADVMTYIHSM [P35, HPV16 L1 375-394]
[6]
  proportion of CD8-positive T cells reactive on the basis of IFNγ expression: brought about a restimulation
  T cell epitope assignment: contain H2b-restricted cytotoxic T cell epitopes

## MSLWLPSEATVYLPPVPVSK [P1, HPV16 L1 1-20]
[2]
  T cell epitope assignment: contain a cytotoxic T cell epitope

## GDSMFFCLRREQLFARHFWN [Q23, HPV18 L1 243-262]
[5]
  proportion of CD8-positive T cells reactive on the basis of IFNγ expression: brought about a restimulation
  T cell epitope assignment: contain H2k-restricted cytotoxic T cell epitopes

## LELINTVIQDGDMVDTGFGA [P18, HPV16 L1 188-207]
[3]
  T cell epitope assignment: contain a T helper epitope
[6]
  proportion of CD8-positive T cells reactive on the basis of IFNγ expression: brought about a restimulation
  T cell epitope assignment: contain H2b-restricted cytotoxic T cell epitopes

## DMVDTGFGAMDFTTLQANKS [P19, HPV16 L1 199-218]
[3]
  T cell epitope assignment: contain a T helper epitope
[6]
  proportion of CD8-positive T cells reactive on the basis of IFNγ expression: brought about a restimulation
  T cell epitope assignment: contain H2b-restricted cytotoxic T cell epitopes

## MLDLQPETTDLYCYEQLNDS [P45, HPV16 E7 12-31]
[2]
  T cell epitope assignment: contain a cytotoxic T cell epitope

## NNNKILVPKVSGLQYRVFRI [P6, HPV16 L1 56-75]
[2]
  T cell epitope assignment: contain a cytotoxic T cell epitope

## NTDDYVTRTSIFYHAGSSRL [Q3, HPV18 L1 23-42]
[4]
  reactive CD8-positive T cells (IFNγ, FACScan): brought about a restimulation
  T cell epitope assignment: contain an H2b-restricted cytotoxic T cell epitope
